Reference: US20220144812A1, “QUINOLINE DERIVATIVES AND THEIR USE FOR THE TREATMENT OF CANCER” (Epizyme, Inc., priority 2019, published 2022)

Tests used:
CREBBP (1084-1701) = molecular target: T1, CREBBP (1084-1701) (Homo sapiens, UniProt Q92793); experiment: Biochemical assay for CREBBP (1084-1701), SAMDI; details: SAMDI, read-out: CREBBP Biochemistry IC50
T1 construct: measured in the following biochemical assay using CREBBP (1084-1701); purchased
Outline: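 CREBBP (1084-1701) preincubated with compound 30 min at RT, then substrate mix (biotin-H3 11-25 K14R/K23R peptide, acetyl-CoA) added for 30 min at RT. Reaction stopped with formic acid, neutralised with sodium bicarbonate. Peptide acetylation read by SAMDI mass spectrometry to derive IC50.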

EP300 (P300(1048-1664)) = molecular target: T2, EP300 (P300(1048-1664)) (Homo sapiens, UniProt Q09472); experiment: Biochemical assay for EP300, SAMDI; details: EP300, SAMDI; read-out: EP300 Biochemistry IC50
T2 construct: P300(1048-1664)
T2 sequence (Q09472 1048-1664): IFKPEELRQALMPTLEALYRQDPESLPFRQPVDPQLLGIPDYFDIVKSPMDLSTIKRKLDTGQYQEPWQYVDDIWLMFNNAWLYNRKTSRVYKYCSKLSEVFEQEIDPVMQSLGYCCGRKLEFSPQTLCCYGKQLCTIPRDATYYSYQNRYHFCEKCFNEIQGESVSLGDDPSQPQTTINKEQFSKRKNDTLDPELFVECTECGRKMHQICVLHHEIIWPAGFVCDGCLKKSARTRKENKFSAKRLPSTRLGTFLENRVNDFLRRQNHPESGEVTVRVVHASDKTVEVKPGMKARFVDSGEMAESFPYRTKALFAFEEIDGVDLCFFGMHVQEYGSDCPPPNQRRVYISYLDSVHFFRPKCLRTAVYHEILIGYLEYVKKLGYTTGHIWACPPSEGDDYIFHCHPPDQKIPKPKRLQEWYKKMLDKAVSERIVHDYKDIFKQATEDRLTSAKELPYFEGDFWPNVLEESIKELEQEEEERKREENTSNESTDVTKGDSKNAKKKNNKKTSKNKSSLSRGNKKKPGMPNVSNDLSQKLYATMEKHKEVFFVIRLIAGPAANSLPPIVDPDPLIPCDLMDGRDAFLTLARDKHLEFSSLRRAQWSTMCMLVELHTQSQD
Description: The following example describes materials and methods relating to a biochemical assay for EP300. IC50 values (micromolar (μM)) are summarized in Table 1, Table 2, and Table 3 under the column labeled: “EP300 Biochemistry IC50 (micromolar).”

[1] = system: H3K18Ac in HB-CLS-2 cells; experiment: H3K18AC in-cell western (ICW) assay; format: cell-based; details: H3K18Ac in-cell western; read-out: CREBBP ICW IC50
Outline: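 HB-CLS-2 cells seeded 16–24 hours before 2 hr compound treatment at 37° C, 5% CO2, then methanol-fixed. H3K18Ac detected with rabbit monoclonal primary (overnight, 4° C) and 800CW anti-rabbit secondary; DRAQ5 stained DNA. Plates imaged at 700 and 800 nm for integrated intensity; IC50 in μM.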

647V cells = experiment: High throughput proliferation (HTP) assay; format: cell-based; details: Homo sapiens, 647-V, high throughput proliferation; read-out: CREBBP HTP IC50
Outline: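 Exponentially growing 647V cells in DMEM with 15% FBS were treated in triplicate with increasing compound concentrations at 37° C, 5% CO2. Viable cell number was read by CellTiter-Glo luminescence on day 7; IC50 in micromolar.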

T1 sequence (Q92793 1084-1701): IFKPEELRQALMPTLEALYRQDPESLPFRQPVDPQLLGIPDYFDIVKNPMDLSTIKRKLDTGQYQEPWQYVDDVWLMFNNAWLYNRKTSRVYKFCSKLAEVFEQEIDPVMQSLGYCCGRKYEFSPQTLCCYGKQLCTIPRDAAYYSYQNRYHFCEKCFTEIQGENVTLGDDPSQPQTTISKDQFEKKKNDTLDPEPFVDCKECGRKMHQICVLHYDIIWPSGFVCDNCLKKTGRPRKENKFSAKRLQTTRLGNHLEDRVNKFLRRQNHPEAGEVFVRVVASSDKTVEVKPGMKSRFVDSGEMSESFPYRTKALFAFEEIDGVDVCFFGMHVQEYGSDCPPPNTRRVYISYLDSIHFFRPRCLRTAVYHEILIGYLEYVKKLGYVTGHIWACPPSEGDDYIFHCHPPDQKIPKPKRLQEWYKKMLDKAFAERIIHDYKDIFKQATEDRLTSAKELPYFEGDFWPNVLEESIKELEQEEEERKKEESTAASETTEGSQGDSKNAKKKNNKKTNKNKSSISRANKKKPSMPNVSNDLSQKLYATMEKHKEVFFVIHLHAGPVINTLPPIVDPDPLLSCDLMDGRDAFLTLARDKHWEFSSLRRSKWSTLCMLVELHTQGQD

Compound	IC50 (CREBBP (1084-1701))	IC50 (EP300 (P300(1048-1664)))	IC50 [1]	IC50 (647V cells)
CCn1ncc(CN(C)C(=O)c2cc(-c3ccc(OCC(O)CNC)c(C)n3)nc3ccc(COC)cc23)c1C (centres unmarked) [Compound 496]	167 nM	59.9 nM	937 nM	689 nM
CCn1ncc(CN(C)C(=O)c2cc(-c3ccc(N4CC(N(C)C)C4)c(C)n3)nc3ccc(Cl)cc23)c1C [Compound 497]	846 nM	661 nM	1630 nM	2560 nM
CCn1ncc(CN(C)C(=O)c2nc(-c3ccc(OCCNC)c(Cl)c3)nc3ccc(C4COC4)cc23)c1C [Compound 498]	5080 nM	4980 nM	5550 nM	2880 nM
CCn1ncc(CN(C)C(=O)c2nc(-c3cc(N)c4cn[nH]c4c3)nc3ccc(COC)cc23)c1C [Compound 499]	14.9 nM	3.5 nM	137 nM	183 nM
CCc1ncc(CN(C)C(=O)c2nc(-c3cc(N)c4cn[nH]c4c3)nc3ccc(COC)cc23)n1C [Compound 500]	25.3 nM	28.5 nM	371 nM	409 nM
CCc1ncc(CN(C)C(=O)c2nc(-c3cc(C)cc(NC4CCNC4)c3)nc3ccc(COC)cc23)n1C (centres unmarked) [Compound 501]	148 nM	36.8 nM	3890 nM	1150 nM
CCn1ncc(CN(C)C(=O)c2cc(-c3ccc(N(C)C)nn3)nc3ccc(Cl)cc23)c1C [Compound 502]	10600 nM	4850 nM	2530 nM	9010 nM
CCn1ncc(CN(C)C(=O)c2nc(-c3ccc(OCCNC)c(Cl)c3)nc3ccc(CS(C)(=O)=O)cc23)c1C [Compound 503]	9850 nM	9280 nM	17100 nM	7610 nM
CCn1ncc(CN(C)C(=O)c2cc(-c3ccc(NCCNC)nn3)nc3ccc(Cl)cc23)c1C [Compound 504]	5780 nM	2000 nM	3990 nM	3730 nM
CCn1ncc(CN(C)C(=O)c2cc(-c3ccc(N(C)CCN)nn3)nc3ccc(Cl)cc23)c1C [Compound 505]	4520 nM	3280 nM	2340 nM	5960 nM
CCn1ncc(CN(C)C(=O)c2cc(-c3cc4n[nH]cc4cn3)nc3ccc(COC)cc23)c1C [Compound 506]	64.8 nM	7.6 nM	185 nM	567 nM
CCn1ncc(CN(C)C(=O)c2nc(-c3cc4c(N)nn(CCNC)c4cc3C)nc3ccc(Cl)cc23)c1C [Compound 507]	556 nM	1360 nM	1600 nM	1010 nM
CCn1ncc(CN(C)C(=O)c2nc(-c3cc4c(N)[nH]nc4cc3C)nc3ccc(COC)cc23)c1C [Compound 508]	46.3 nM	22.4 nM	174 nM	212 nM
CCc1ncc(CN(C)C(=O)c2cc(-c3cc4n[nH]cc4cn3)nc3ccc(COC)cc23)n1C [Compound 510]	62.9 nM	9.3 nM	225 nM	465 nM
CCc1ncc(CN(C)C(=O)c2cc(-c3cc(C(=O)NC)n(C)n3)nc3ccc(Cl)cc23)n1C [Compound 512]	15.2 nM	4 nM	104 nM	110 nM
CCc1ncc(CN(C)C(=O)c2cc(-c3ccc(NCCNC)c(C)n3)nc3ccc(COC)cc23)n1C [Compound 513]	68.4 nM	35 nM	470 nM	203 nM
CCc1ncc(CN(C)C(=O)c2nc(-c3cc(C)c4[nH]c(=O)[nH]c4c3)nc3ccc(Cl)cc23)n1C [Compound 514]	8.96 nM	2.7 nM	470 nM	363 nM
CCn1ncc(CN(C)C(=O)c2nc(-c3cc4c(N)n(CCNC)nc4cc3C)nc3ccc(Cl)cc23)c1C [Compound 515]	70.5 nM	49.4 nM	166 nM	78.5 nM
CCn1ncc(CN(C)C(=O)c2nc(-c3cc(C)nc(NCCNC)c3)nc3ccc(COC)cc23)c1C [Compound 516]	58.4 nM	46.5 nM	194 nM	125 nM
CCc1ncc(CN(C)C(=O)c2cc(-c3ccc(NC4CCOCC4)c(C)n3)nc3ccc(Cl)cc23)n1C [Compound 517]	36.1 nM	12.1 nM	159 nM	107 nM
CCn1ncc(CN(C)C(=O)c2cc(-c3cc4c(N)n[nH]c4c(C)n3)nc3ccc(Cl)cc23)c1C [Compound 519]	31.4 nM	107 nM	253 nM	326 nM
CCn1ncc(CN(C)C(=O)c2cc(-c3cc(C(=O)NC)n(C)n3)nc3ccc(COC)cc23)c1C [Compound 520]	80.7 nM	23.8 nM	334 nM	650 nM
CCn1ncc(CN(C)C(=O)c2cc(-c3ccc(NCCO)c(C)n3)nc3ccc(Cl)cc23)c1C [Compound 521]	10 nM	7.1 nM	80.4 nM	110 nM
CCn1ncc(CN(C)C(=O)c2nc(-c3nc4c[nH]nc4cc3C)nc3ccc(Cl)cc23)c1C [Compound 522]	26000 nM	16600 nM	16600 nM	8060 nM
CCc1ncc(CN(C)C(=O)c2nc(-c3cc(Cl)c4[nH]cnc4c3)nc3ccc(COC)cc23)n1C [Compound 523]	6.22 nM	2.7 nM	74.1 nM	34.7 nM
CCn1ncc(CN(C)C(=O)c2nc(-c3cc(C)c4c(N)n[nH]c4c3)nc3ccc(COC)cc23)c1C [Compound 524]	16 nM	4 nM	81.4 nM	163 nM
CCn1ncc(CN(C)C(=O)c2cc(-c3cnc(NCCNC)c(C)n3)nc3ccc(Cl)cc23)c1C [Compound 525]	54 nM	142 nM	260 nM	313 nM
CCc1ncc(CN(C)C(=O)c2nc(-c3cc(C)c4c(N)[nH]nc4c3)nc3ccc(Cl)cc23)n1C [Compound 526]	6.42 nM	2 nM	46.5 nM	72 nM
CCc1ncc(CN(C)C(=O)c2nc(-c3cc(C)nc(NCCNC)c3)nc3ccc(COC)cc23)n1C [Compound 527]	67.2 nM	21.2 nM	798 nM	295 nM
